Activity calls are given as the source filed them. The calls are words filed in the database; no cut-off is given here. Non-standard residues stand in square brackets, D forms with d. Residues, ends and D or L forms follow the SMILES beside them. *: point of attachment. Hexenoyl(2E,4S-Me) = CC[C@H](C)/C=C/C(=O)*; Leu(3R-OH) = CC(C)[C@@H](O)[C@H](N)C(=O)O; NH((S)CH(Me)CH2NMe2) = C[C@@H](CN(C)C)N*; NH(2-morpholinoethyl) = C(CN1CCOCC1)N*; Pro(4S-Me) = C[C@@H]1CN[C@H](C(=O)O)C1; NH(1-CH2NMe2-cBu) = CN(C)CC1(N*)CCC1; Gly(octyl) = CCCCCCCC[C@H](N)C(=O)O; Oxazole4CO(2-Me) = Cc1nc(C(=O)*)co1; Benzoyl(4-F) = O=C(c1ccc(F)cc1)*; hCha = N[C@@H](CCC1CCCCC1)C(=O)O; Tle = CC(C)(C)[C@H](N)C(=O)O; NHCH2CH2NMe2 = CN(C)CCN*; Nle = CCCC[C@H](N)C(=O)O; Hexanoyl = CCCCCC(=O)*; Aib = CC(C)(N)C(=O)O; X2 = CN(CCN*)CC(F)F; βAla = NCCC(=O)O; tBu = CC(C)(C)*
What was measured:
[1] = Inhibition of Bovine heart ATP synthase assessed as inhibition constant by Michaelis-Menten plot analysis; design: species or system Bos taurus
[2] = system: Trypanosoma brucei rhodesiense; experiment: Antitrypanosomal activity against Trypanosoma brucei rhodesiense STIB 900; assay type: functional, organism-based
Lipid bilayer = experiment: Disruption of membrane integrity in bacterial cell membrane mimic POPC/POPG LUVs assessed as calcein leakage at 500 nM measured for 1 mins by fluorescence spectroscopy analysis
[3] = Cytotoxicity against rat L6 cells assessed as cell viability incubated for 72 hrs by CCK-8 assay
[4] = system: Trypanosoma brucei rhodesiense; experiment: Antitrypanosomal activity against Trypanosoma brucei rhodesiense STIB 900 incubated for 72 hrs by resazurin staining based analysis; assay type: functional, organism-based; conditions: STIB 900, 72 h
Trypanosoma cruzi = experiment: Antitrypanosomal activity against Trypanosoma cruzi Tulahuen C4 incubated for 4 days; assay type: functional, organism-based; conditions: Tulahuen C4, 96 h
Leishmania donovani = experiment: Antitrypanosomal activity against Leishmania donovani MHOM/ET/67/L82 incubated for 72 hrs by resazurin staining based analysis; assay type: functional, organism-based; conditions: MHOM/ET/67/L82, 72 h
Plasmodium falciparum = experiment: Antiplasmodial activity against Plasmodium falciparum NF54 incubated for 48 hrs; assay type: functional, organism-based; conditions: NF54, 48 h
Fibroblast [5] = experiment: Reduction in respiration rate in human Fibroblast cells assessed as decrease in coupling efficiency at 50 nM incubated up to 60 mins; assay type: functional, cell-based
Fibroblast [6] = experiment: Reduction in respiration rate in human Fibroblast cells assessed as decrease in coupling efficiency at > 200 nM incubated up to 60 mins; assay type: functional, cell-based
Bos taurus = species on record: Bos taurus; experiment: Potency index, ratio of Leucinostatin A Ki to test compound Ki for inhibition of Bovine heart ATP synthase
[7] = Cytotoxicity against rat L6 cells assessed as cell viability; assay type: toxicity, cell-based

IC50 [2]	SMILES	Ki [1]	Ki ([1]; read-out: Ki)	Activity (Lipid bilayer)	IC50 at 72 h [3]	IC50 [4]	IC50 (Trypanosoma cruzi)	IC50 (Leishmania donovani)	IC50 (Plasmodium falciparum)	Activity (Fibroblast [5])	Activity (Fibroblast [6])	Ratio Ki (Bos taurus)	IC50 [7]
–	N#CC(C#N)=NNc1ccc(OC(F)(F)F)cc1	Not_determined	–	–	–	–	–	–	–	–	–	–	–
–	CCCCCC(=O)N1CCC[C@H]1C(=O)N[C@@H](CCC1CCCCC1)C(=O)N[C@@H](CC(C)C)C(=O)NC(C)(C)C(=O)N[C@@H](CC(C)C)C(=O)N[C@@H](CC(C)C)C(=O)NC(C)(C)C(=O)NC(C)(C)C(=O)NCCC(=O)N[C@@H](C)CN(C)C (Hexanoyl-P[hCha]L[Aib]LL[Aib][Aib][βAla]-{NH((S)CH(Me)CH2NMe2)})	–	0.139 µM	–	–	–	–	–	–	–	–	–	–
0.0039 µM	CC(C)C[C@H](NC(=O)[C@H](CCC1CCCCC1)NC(=O)[C@@H]1CCCN1C(=O)c1ccc(F)cc1)C(=O)NC(C)(C)C(=O)N[C@@H](CC(C)C)C(=O)N[C@@H](CC(C)C)C(=O)NC(C)(C)C(=O)NC(C)(C)C(=O)NCCC(=O)NCCN(C)C ({Benzoyl(4-F)}-P[hCha]L[Aib]LL[Aib][Aib][βAla]-NHCH2CH2NMe2)	–	0.455 µM	Active	–	–	–	–	–	–	–	–	–
0.072 µM	CC(C)C[C@H](NC(=O)[C@H](CCC1CCCCC1)NC(=O)[C@@H]1CCCN1C(=O)c1ccc(F)cc1)C(=O)NC(C)(C)C(=O)N[C@@H](CC(C)C)C(=O)N[C@@H](CC(C)C)C(=O)NC(C)(C)C(=O)NC(C)(C)C(=O)NCCC(=O)NCCN1CCOCC1 ({Benzoyl(4-F)}-P[hCha]L[Aib]LL[Aib][Aib][βAla]-{NH(2-morpholinoethyl)})	–	0.703 µM	–	–	–	–	–	–	–	–	–	–
–	CC(C)C[C@H](NC(=O)[C@H](CC(C)C)NC(=O)C(C)(C)NC(=O)[C@@H](NC(=O)[C@H](CCC1CCCCC1)NC(=O)[C@@H]1CCCN1C(=O)c1ccc(F)cc1)[C@H](O)C(C)C)C(=O)NC(C)(C)C(=O)NC(C)(C)C(=O)NCCC(=O)N[C@@H](C)CN(C)C ({Benzoyl(4-F)}-P[hCha][Leu(3R-OH)][Aib]LL[Aib][Aib][βAla]-{NH((S)CH(Me)CH2NMe2)})	–	0.134 µM	–	1.23 µM	0.0013 µM	1.13 µM	0.0067 µM	0.003 µM	–	–	–	–
–	CC(C)C[C@H](NC(=O)[C@H](CCC1CCCCC1)NC(=O)[C@@H]1C[C@H](C)CN1C(=O)c1ccc(F)cc1)C(=O)NC(C)(C)C(=O)N[C@@H](CC(C)C)C(=O)N[C@@H](CC(C)C)C(=O)NC(C)(C)C(=O)NC(C)(C)C(=O)NCCC(=O)N[C@@H](C)CN(C)C ({Benzoyl(4-F)}-[Pro(4S-Me)][hCha]L[Aib]LL[Aib][Aib][βAla]-{NH((S)CH(Me)CH2NMe2)})	–	0.084 µM	–	0.266 µM	0.0003 µM	0.0039 µM	0.00034 µM	0.0013 µM	Active	Active	–	–
–	CC(C)C[C@H](NC(=O)[C@H](CC(C)C)NC(=O)C(C)(C)NC(=O)[C@@H](NC(=O)[C@H](CCC1CCCCC1)NC(=O)[C@@H]1C[C@H](C)CN1C(=O)c1ccc(F)cc1)[C@H](O)C(C)C)C(=O)NC(C)(C)C(=O)NC(C)(C)C(=O)NCCC(=O)N[C@@H](C)CN(C)C ({Benzoyl(4-F)}-[Pro(4S-Me)][hCha][Leu(3R-OH)][Aib]LL[Aib][Aib][βAla]-{NH((S)CH(Me)CH2NMe2)})	–	0.055 µM	–	1.34 µM	0.00063 µM	0.423 µM	0.01 µM	0.0034 µM	Active	Active	–	–
–	CC[C@H](C)/C=C/C(=O)N1CCC[C@H]1C(=O)N[C@@H](CCC1CCCCC1)C(=O)N[C@H](C(=O)NC(C)(C)C(=O)N[C@@H](CC(C)C)C(=O)N[C@@H](CC(C)C)C(=O)NC(C)(C)C(=O)NC(C)(C)C(=O)NCCC(=O)N[C@@H](C)CN(C)C)[C@H](O)C(C)C ({Hexenoyl(2E,4S-Me)}-P[hCha][Leu(3R-OH)][Aib]LL[Aib][Aib][βAla]-{NH((S)CH(Me)CH2NMe2)})	–	0.029 µM	–	0.208 µM	0.00056 µM	0.18 µM	0.00053 µM	0.00052 µM	–	–	–	–
–	CCCCCCCC[C@H](NC(=O)[C@@H]1C[C@H](C)CN1C(=O)/C=C/[C@@H](C)CC)C(=O)N[C@H](C(=O)NC(C)(C)C(=O)N[C@@H](CC(C)C)C(=O)N[C@@H](CC(C)C)C(=O)NC(C)(C)C(=O)NC(C)(C)C(=O)NCCC(=O)N[C@@H](C)CN(C)C)[C@H](O)C(C)C ({Hexenoyl(2E,4S-Me)}-[Pro(4S-Me)][Gly(octyl)][Leu(3R-OH)][Aib]LL[Aib][Aib][βAla]-{NH((S)CH(Me)CH2NMe2)})	–	0.053 µM	–	0.077 µM	0.00034 µM	0.024 µM	0.00069 µM	0.00034 µM	–	–	–	–
–	CC[C@H](C)/C=C/C(=O)N1C[C@@H](C)C[C@H]1C(=O)N[C@@H](CCC1CCCCC1)C(=O)N[C@@H](CC(C)C)C(=O)NC(C)(C)C(=O)N[C@@H](CC(C)C)C(=O)N[C@@H](CC(C)C)C(=O)NC(C)(C)C(=O)NC(C)(C)C(=O)NCCC(=O)N[C@@H](C)CN(C)C ({Hexenoyl(2E,4S-Me)}-[Pro(4S-Me)][hCha]L[Aib]LL[Aib][Aib][βAla]-{NH((S)CH(Me)CH2NMe2)})	–	0.107 µM	–	0.157 µM	0.00026 µM	0.043 µM	0.0013 µM	0.00069 µM	–	Active	–	–
–	CC[C@H](C)/C=C/C(=O)N1C[C@@H](C)C[C@H]1C(=O)N[C@@H](CCC1CCCCC1)C(=O)N[C@H](C(=O)NC(C)(C)C(=O)N[C@@H](CC(C)C)C(=O)N[C@@H](CC(C)C)C(=O)NC(C)(C)C(=O)NC(C)(C)C(=O)NCCC(=O)N[C@@H](C)CN(C)C)[C@H](O)C(C)C ({Hexenoyl(2E,4S-Me)}-[Pro(4S-Me)][hCha][Leu(3R-OH)][Aib]LL[Aib][Aib][βAla]-{NH((S)CH(Me)CH2NMe2)})	–	0.022 µM	–	0.232 µM	0.00034 µM	0.275 µM	0.0012 µM	0.00047 µM	–	Active	4	–
0.0039 µM	Cc1nc(C(=O)N2CCC[C@H]2C(=O)N[C@@H](COC(C)(C)C)C(=O)N[C@@H](CC(C)C)C(=O)NC(C)(C)C(=O)N[C@@H](CC(C)C)C(=O)N[C@@H](CC(C)C)C(=O)NC(C)(C)C(=O)NC(C)(C)C(=O)NCCC(=O)NC2(CN(C)C)CCC2)co1 ({Oxazole4CO(2-Me)}-PS(tBu)L[Aib]LL[Aib][Aib][βAla]-{NH(1-CH2NMe2-cBu)})	–	18.1 µM	–	–	–	6.41 µM	0.166 µM	0.272 µM	–	–	–	> 8.75 µM
0.0013 µM	Cc1nc(C(=O)N2CCC[C@H]2C(=O)N[C@@H](Cc2c[nH]c3ccccc23)C(=O)N[C@@H](CC(C)C)C(=O)NC(C)(C)C(=O)N[C@@H](CC(C)C)C(=O)N[C@@H](CC(C)C)C(=O)NC(C)(C)C(=O)NC(C)(C)C(=O)NCCC(=O)NC2(CN(C)C)CCC2)co1 ({Oxazole4CO(2-Me)}-PWL[Aib]LL[Aib][Aib][βAla]-{NH(1-CH2NMe2-cBu)})	–	–	–	–	–	2.7 µM	0.031 µM	0.018 µM	–	–	–	–
0.00076 µM	Cc1nc(C(=O)N2CCC[C@H]2C(=O)N[C@@H](CCC2CCCCC2)C(=O)N[C@@H](CC(C)C)C(=O)NC(C)(C)C(=O)N[C@@H](CC(C)C)C(=O)N[C@@H](CC(C)C)C(=O)NC(C)(C)C(=O)NC(C)(C)C(=O)NCCC(=O)NC2(CN(C)C)CCC2)co1 ({Oxazole4CO(2-Me)}-P[hCha]L[Aib]LL[Aib][Aib][βAla]-{NH(1-CH2NMe2-cBu)})	–	–	–	–	–	0.193 µM	0.011 µM	0.0048 µM	–	–	–	–

SMILES	IC50 [2]	Ki [1]	Ki ([1]; read-out: Ki)	Activity (Lipid bilayer)	IC50 at 72 h [3]	IC50 [4]	IC50 (Trypanosoma cruzi)	IC50 (Leishmania donovani)	IC50 (Plasmodium falciparum)	Activity (Fibroblast [5])	Activity (Fibroblast [6])	Ratio Ki (Bos taurus)	IC50 [7]
CC(C)C[C@H](NC(=O)[C@H](CCC1CCCCC1)NC(=O)[C@@H]1CCCN1C(=O)c1ccc(F)cc1)C(=O)NC(C)(C)C(=O)N[C@@H](CC(C)C)C(=O)N[C@@H](CC(C)C)C(=O)NC(C)(C)C(=O)NC(C)(C)C(=O)NCCC(=O)NCCN(C)CC(F)F ({Benzoyl(4-F)}-P[hCha]L[Aib]LL[Aib][Aib][βAla]-X2)	0.393 µM	–	0.499 µM	Active	–	–	–	–	–	–	–	–	–
CCCC[C@H](NC(=O)[C@@H]1CCCN1C(=O)c1coc(C)n1)C(=O)N[C@@H](CC(C)C)C(=O)NC(C)(C)C(=O)N[C@@H](CC(C)C)C(=O)N[C@@H](CC(C)C)C(=O)NC(C)(C)C(=O)NC(C)(C)C(=O)NCCC(=O)NC1(CN(C)C)CCC1 ({Oxazole4CO(2-Me)}-P[Nle]L[Aib]LL[Aib][Aib][βAla]-{NH(1-CH2NMe2-cBu)})	0.0065 µM	–	–	–	–	–	5.91 µM	1.53 µM	0.118 µM	–	–	–	> 8.75 µM
Cc1nc(C(=O)N2CCC[C@H]2C(=O)N[C@H](C(=O)N[C@@H](CC(C)C)C(=O)NC(C)(C)C(=O)N[C@@H](CC(C)C)C(=O)N[C@@H](CC(C)C)C(=O)NC(C)(C)C(=O)NC(C)(C)C(=O)NCCC(=O)NC2(CN(C)C)CCC2)C(C)(C)C)co1 ({Oxazole4CO(2-Me)}-P[Tle]L[Aib]LL[Aib][Aib][βAla]-{NH(1-CH2NMe2-cBu)})	0.0041 µM	–	16.2 µM	–	–	–	6.52 µM	1.19 µM	0.212 µM	–	–	–	> 8.98 µM

Source: ChEMBL document CHEMBL6109069 (J Med Chem, 2025)
